Measured values from PubChem BioAssay AID248 (DTP/NCI, 2004).
Several values for one entry are separate records, joined by “and”; a condition that tells them apart may be missing. Identical values can stand only once. Toxic doses and inconclusive results are not listed.

Test system: L1210 leukemia ip in BDF1 mice, survival T/C
Experiment: NCI In Vivo Anticancer Drug Screen. Data for tumor model L1210 Leukemia (intraperitoneal) in B6D2F1 (BDF1) mice
Settings: endpoint: mean survival time, higher = longer survival
Summary of the method: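 Value reflects the ratio of survival in compound-treated mice to survival in vehicle-treated controls, with both groups carrying the same transplanted tumor.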

[1] = dose: 100.0 mg/kg/injection, schedule: Q01DX009 (ip), vehicle: Klucel (hydroxypropylcellulose) (HPC)
[2] = dose: 100.0 mg/kg/injection, schedule: Q04DX002 (ip), vehicle: saline
[3] = dose: 100.0 mg/kg/injection, schedule: Q04DX003 (ip), vehicle: Klucel (hydroxypropylcellulose) (HPC)
[4] = dose: 100.0 mg/kg/injection, schedule: Q04DX003 (ip), vehicle: other
[5] = dose: 200.0 mg/kg/injection, schedule: Q04DX003 (ip), vehicle: other
[6] = dose: 400.0 mg/kg/injection, schedule: Q04DX003 (ip), vehicle: other
[7] = dose: 200.0 mg/kg/injection, schedule: Q04DX003 (ip), vehicle: Klucel (hydroxypropylcellulose) (HPC)
[8] = dose: 400.0 mg/kg/injection, schedule: Q04DX003 (ip), vehicle: Klucel (hydroxypropylcellulose) (HPC)
[9] = dose: 200.0 mg/kg/injection, schedule: Q04DX002 (ip), vehicle: saline
[10] = dose: 400.0 mg/kg/injection, schedule: Q04DX002 (ip), vehicle: saline
[11] = dose: 200.0 mg/kg/injection, schedule: Q01DX009 (ip), vehicle: Klucel (hydroxypropylcellulose) (HPC)
[12] = dose: 400.0 mg/kg/injection, schedule: Q01DX009 (ip), vehicle: Klucel (hydroxypropylcellulose) (HPC)
[13] = dose: 75.0 mg/kg/injection, schedule: Q01DX001 (ip), vehicle: other

With `CC(CN(C)C)C(=O)c1ccccc1` (centres undefined) the T/C (dose: 25.0 mg/kg/injection, schedule: Q01DX009 (ip), vehicle: Klucel (hydroxypropylcellulose) (HPC)) was 106 % of control, the T/C (dose: 25.0 mg/kg/injection, schedule: Q01DX009 (ip), vehicle: saline) was 105 % of control and 104 % of control and the T/C (dose: 25.0 mg/kg/injection, schedule: Q04DX002 (ip), vehicle: saline) was 104 % of control. The T/C (dose: 25.0 mg/kg/injection, schedule: Q04DX003 (ip), vehicle: Klucel (hydroxypropylcellulose) (HPC)) was 91 % of control, the T/C (dose: 25.0 mg/kg/injection, schedule: Q04DX003 (ip), vehicle: saline) was 98 % of control and the T/C (dose: 50.0 mg/kg/injection, schedule: Q01DX009 (ip), vehicle: Klucel (hydroxypropylcellulose) (HPC)) was 101 % of control. The T/C (dose: 50.0 mg/kg/injection, schedule: Q01DX009 (ip), vehicle: saline) was 110 % of control and 100 % of control, the T/C (dose: 50.0 mg/kg/injection, schedule: Q04DX002 (ip), vehicle: saline) was 96 % of control and the T/C (dose: 50.0 mg/kg/injection, schedule: Q04DX003 (ip), vehicle: Klucel (hydroxypropylcellulose) (HPC)) was 100 % of control. For the same molecule, the T/C (dose: 50.0 mg/kg/injection, schedule: Q04DX003 (ip), vehicle: saline) was 88 % of control, the T/C [1] was 108 % of control and the T/C (dose: 100.0 mg/kg/injection, schedule: Q01DX009 (ip), vehicle: saline) was 102 % of control and 96 % of control. For the same molecule, the T/C [2] was 96 % of control, the T/C [3] was 101 % of control and 102 % of control and the T/C (dose: 100.0 mg/kg/injection, schedule: Q04DX003 (ip), vehicle: saline) was 96 % of control and 103 % of control.
For `CC(=O)N(CC(=O)O)Cc1ccccc1`, the T/C (dose: 100.0 mg/kg/injection, schedule: Q01DX009 (ip), vehicle: other) was 100 % of control, the T/C [4] was 95 % of control and the T/C (dose: 200.0 mg/kg/injection, schedule: Q01DX009 (ip), vehicle: other) was 105 % of control. The T/C [5] was 101 % of control, the T/C (dose: 400.0 mg/kg/injection, schedule: Q01DX009 (ip), vehicle: other) was 105 % of control and the T/C [6] was 106 % of control.
In the case of `FC(F)(F)c1nc2nc(Cl)c(Cl)nc2s1`, the T/C (dose: 0.5 mg/kg/injection, schedule: Q01DX009 (ip), vehicle: other) was 116 % of control, the T/C (dose: 1.0 mg/kg/injection, schedule: Q01DX009 (ip), vehicle: other) was 106 % of control and the T/C (dose: 2.0 mg/kg/injection, schedule: Q01DX009 (ip), vehicle: other) was 101 % of control. The T/C (dose: 3.12 mg/kg/injection, schedule: Q01DX009 (ip), vehicle: other) was 114 % of control, the T/C (dose: 4.0 mg/kg/injection, schedule: Q01DX009 (ip), vehicle: other) was 107 % of control and the T/C (dose: 6.25 mg/kg/injection, schedule: Q01DX009 (ip), vehicle: other) was 103 % of control. The T/C (dose: 12.5 mg/kg/injection, schedule: Q01DX009 (ip), vehicle: other) was 103 % of control and the T/C (dose: 25.0 mg/kg/injection, schedule: Q01DX009 (ip), vehicle: other) was 101 % of control and 103 % of control.
With `CC(C)(C)c1cc(C(=S)N2CCN(C(=S)c3cc(C(C)(C)C)c(O)c(C(C)(C)C)c3)CC2)cc(C(C)(C)C)c1O` the T/C [3] was 97 % of control, the T/C [7] was 94 % of control and the T/C [8] was 96 % of control.
In the case of `CC(C)=COC(=N)C(N)=O`, the T/C [4] was 100 % of control, the T/C [5] was 97 % of control and the T/C [6] was 115 % of control.
`c1ccc(NC2C(=C(c3ccccc3)c3ccccc3)N3CCC2CC3)cc1` (centres undefined) was tested, and the T/C [3] was 95 % of control, the T/C [7] was 94 % of control and the T/C [8] was 95 % of control.
`O=C1CCN(C2(c3ccccc3)CCCCC2)CC1` was tested, and the T/C [2] was 92 % of control, the T/C [9] was 103 % of control and the T/C [10] was 97 % of control.
For `CC1(C)OC2OC(CO)C(O)C(O)C2O1` (centres undefined), the T/C [2] was 94 % of control, the T/C [9] was 94 % of control and the T/C [10] was 94 % of control.
In the case of `COc1c(C)cccc1[N+](=O)[O-]`, the T/C [1] was 104 % of control, the T/C [3] was 98 % of control and the T/C [11] was 101 % of control. The T/C [7] was 104 % of control, the T/C [12] was 101 % of control and the T/C [8] was 101 % of control.
With `O=C(Nc1ccc(C(=O)O)cc1)Oc1ccc(N(CCCl)CCCl)cc1` the T/C (dose: 6.0 mg/kg/injection, schedule: Q01DX009 (ip), vehicle: other) was 114 % of control, the T/C (dose: 6.0 mg/kg/injection, schedule: Q01DX009 (ip), vehicle: saline) was 106 % of control and the T/C (dose: 12.0 mg/kg/injection, schedule: Q01DX009 (ip), vehicle: other) was 122 % of control. For the same molecule, the T/C (dose: 12.0 mg/kg/injection, schedule: Q01DX009 (ip), vehicle: saline) was 117 % of control, the T/C (dose: 37.5 mg/kg/injection, schedule: Q01DX001 (ip), vehicle: other) was 114 % of control and the T/C (dose: 48.0 mg/kg/injection, schedule: Q01DX009 (ip), vehicle: other) was 160 % of control. For the same molecule, the T/C (dose: 75.0 mg/kg/injection, schedule: Q01DX001 (ip), vehicle: carboxymethylcellulose (CMC)) was 124 % of control, the T/C [13] was 121 % of control and the T/C (dose: 96.0 mg/kg/injection, schedule: Q01DX009 (ip), vehicle: other) was 101 % of control. For the same molecule, the T/C (dose: 96.0 mg/kg/injection, schedule: Q01DX009 (ip), vehicle: saline) was 91 % of control and the T/C (dose: 300.0 mg/kg/injection, schedule: Q01DX001 (ip), vehicle: other) was 117 % of control.
In the case of `COC(=O)C1C=C2c3cccc4[nH]cc(c34)CC2N(C#N)C1` (centres undefined), the T/C (dose: 25.0 mg/kg/injection, schedule: Q04DX003 (ip), vehicle: alcohol) was 91 % of control, the T/C (dose: 50.0 mg/kg/injection, schedule: Q04DX003 (ip), vehicle: alcohol) was 100 % of control and the T/C (dose: 100.0 mg/kg/injection, schedule: Q04DX003 (ip), vehicle: alcohol) was 96 % of control. The T/C (dose: 200.0 mg/kg/injection, schedule: Q04DX003 (ip), vehicle: alcohol) was 93 % of control and the T/C (dose: 400.0 mg/kg/injection, schedule: Q04DX003 (ip), vehicle: alcohol) was 94 % of control.
With `CCOC(=O)c1ccc(SC(Cl)(Cl)Cl)cc1` the T/C (dose: 100.0 mg/kg/injection, schedule: Q01DX001 (ip), vehicle: alcohol) was 98 % of control, the T/C (dose: 200.0 mg/kg/injection, schedule: Q01DX001 (ip), vehicle: alcohol) was 107 % of control and the T/C (dose: 400.0 mg/kg/injection, schedule: Q01DX001 (ip), vehicle: alcohol) was 120 % of control.
In the case of `NC(N)=NC(N)=Nc1ccc(S(=O)(=O)c2ccc(N=C(N)N=C(N)N)cc2)cc1`, the T/C (dose: 100.0 mg/kg/injection, schedule: Q01DX009 (ip), vehicle: saline with Tween-80) was 95 % of control and the T/C (dose: 200.0 mg/kg/injection, schedule: Q01DX009 (ip), vehicle: saline with Tween-80) was 95 % of control.
For `C/C=C1/CN2CCC1CC2C(O)c1ccnc2ccc(O)cc12` (centres undefined), the T/C (dose: 75.0 mg/kg/injection, schedule: Q01DX001 (ip), vehicle: saline) was 101 % of control.
In the case of `CC(C)(C)OC(=O)C(C1NC2C(=O)OCC2(CO)S1)N1C(=O)c2ccccc2C1=O` (centres undefined), the T/C [3] was 95 % of control, the T/C [7] was 92 % of control and the T/C [8] was 101 % of control.
With `Cc1cc(NC(=O)NCCCl)c2c(c1C)CCCC2` the T/C (dose: 20.0 mg/kg/injection, schedule: Q01DX001 (ip), vehicle: Klucel (hydroxypropylcellulose) (HPC)) was 100 % of control, the T/C (dose: 40.0 mg/kg/injection, schedule: Q01DX001 (ip), vehicle: Klucel (hydroxypropylcellulose) (HPC)) was 96 % of control and the T/C (dose: 100.0 mg/kg/injection, schedule: Q01DX001 (ip), vehicle: Klucel (hydroxypropylcellulose) (HPC)) was 90 % of control.
In the case of `C[N+](C)(C)c1ccc(NC(=O)c2ccc(C(=O)Nc3ccc([N+](C)(C)C)cc3)cc2)cc1`, the T/C (dose: 0.5 mg/kg/injection, schedule: Q01DX Z (ip), vehicle: saline) was 93 % of control, the T/C (dose: 1.0 mg/kg/injection, schedule: Q01DX Z (ip), vehicle: saline) was 102 % of control and the T/C (dose: 2.0 mg/kg/injection, schedule: Q01DX Z (ip), vehicle: saline) was 97 % of control.
With `O=C(C[n+]1c(Cl)ccc2ccccc21)c1ccccc1` the T/C [13] was 94 % of control and the T/C (dose: 150.0 mg/kg/injection, schedule: Q01DX001 (ip), vehicle: other) was 100 % of control.
With `CSc1nnc(C)c(=O)[nH]1` the T/C (dose: 100.0 mg/kg/injection, schedule: Q01DX001 (ip), vehicle: saline with Tween-80) was 100 % of control, the T/C (dose: 200.0 mg/kg/injection, schedule: Q01DX001 (ip), vehicle: saline with Tween-80) was 102 % of control and the T/C (dose: 400.0 mg/kg/injection, schedule: Q01DX001 (ip), vehicle: saline with Tween-80) was 97 % of control.
In the case of `O=c1c2ccccc2nc(-c2ccccc2)n1/N=C/c1ccco1`, the T/C [1] was 93 % of control, the T/C [11] was 94 % of control and the T/C [12] was 96 % of control.
